Tests used:
[1] = target: T1, Albumin (Homo sapiens, UniProt P02768); experiment: Protein binding in immobilized human serum albumin by HPLC analysis; type: ADME; settings: read-out: PB (converted)
[2] = target: T1, Albumin; experiment: Protein binding in human serum albumin after 4.5 hrs by LC-MS based rapid equilibrium dialysis method; type: ADME; settings: read-out: PB (converted)
[3] = Protein binding in plasma (unknown origin); type: ADME, cell-free; settings: read-out: PPB (converted)
[4] = target: T1, Albumin; experiment: Protein binding in immobilized human serum albumin after 15 mins by HPLC analysis; type: ADME; settings: read-out: PB (converted)

T1 sequence (P02768 whole entry): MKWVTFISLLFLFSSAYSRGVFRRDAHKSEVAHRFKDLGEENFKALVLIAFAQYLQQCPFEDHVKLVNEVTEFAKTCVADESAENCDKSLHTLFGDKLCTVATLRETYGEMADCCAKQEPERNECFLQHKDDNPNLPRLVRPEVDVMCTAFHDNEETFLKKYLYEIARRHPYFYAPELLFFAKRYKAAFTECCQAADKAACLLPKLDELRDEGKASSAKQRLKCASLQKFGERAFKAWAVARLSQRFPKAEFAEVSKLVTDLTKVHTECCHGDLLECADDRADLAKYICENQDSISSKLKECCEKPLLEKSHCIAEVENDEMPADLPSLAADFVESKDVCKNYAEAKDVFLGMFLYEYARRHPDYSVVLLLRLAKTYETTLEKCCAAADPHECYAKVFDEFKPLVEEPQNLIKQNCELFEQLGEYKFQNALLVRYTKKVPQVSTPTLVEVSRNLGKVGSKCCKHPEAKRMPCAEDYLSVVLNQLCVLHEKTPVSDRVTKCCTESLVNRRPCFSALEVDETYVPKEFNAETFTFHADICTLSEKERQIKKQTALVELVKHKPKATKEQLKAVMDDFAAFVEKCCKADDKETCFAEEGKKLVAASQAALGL

SMILES | fraction unbound [1] | fraction unbound at 4.5 h [2] | fraction unbound [3] | fraction unbound at 0.25 h [4]
CCCCC1(C)C(=O)N(c2ccccc2)N(c2ccccc2)C1=O | 0.15 | 0.359 |  | 
COc1cc(Cc2cnc(N)nc2N)cc(OC)c1OC [TRIMETHOPRIM] | 0.627 | 0.969 | 0.585 to 0.625 | 
NC(N)=Nc1nc(CSCCC(N)=NS(N)(=O)=O)cs1 [FAMOTIDINE] | 0.749 | 0.956 | 0.8 | 
CCOC(=O)c1cc(-c2ccc(F)cc2F)ccc1O | 0.025 |  |  | 
CN1C(C(=O)Nc2ccccn2)=C(O)c2ccccc2S1(=O)=O [PIROXICAM] |  |  | 0.01 | 
NNC(=O)c1ccncc1 [ISONIAZID] | 0.891 |  | 1 | 0.932
CC(C)NCC(O)COc1cccc2ccccc12 (stereo not drawn) [PROPRANOLOL] | 0.375 |  |  | 
CC1=C(CC(=O)O)c2cc(F)ccc2/C1=C\c1ccc([S+](C)[O-])cc1 (stereo not drawn) |  |  | 0.06 to 0.065 | 
Cc1cnc(NC(=O)C2=C(O)c3ccccc3S(=O)(=O)N2C)s1 [MELOXICAM] | 0.001 | 0.033 |  | 
CCCCc1c(OC)n(-c2ccccc2)n(-c2ccccc2)c1=O | 0.071 | 0.071 |  | 
CO/N=C(\C(=O)N[C@@H]1C(=O)N2C(C(=O)O)=C(COC(N)=O)CS[C@H]12)c1ccco1 [CEFUROXIME] |  |  | 0.67 to 0.685 | 
O=C1CN=C(c2ccccc2)c2cc([N+](=O)[O-])ccc2N1 [NITRAZEPAM] | 0.233 |  |  | 
COC1=C(C(=O)Nc2ncc(C)s2)N(C)S(=O)(=O)c2ccccc21 | 0.158 | 0.341 |  | 
CCN(CC)CCOC(=O)c1ccc(N)cc1 [PROCAINE] |  |  | 0.94 | 0.64
CN(C)CCCN1c2ccccc2CCc2ccccc21 [IMIPRAMINE] | 0.151 |  | 0.074 to 0.099 | 
Cc1ncc([N+](=O)[O-])n1CCO [METRONIDAZOLE] |  |  | 0.89 to 0.9 | 
CN1C(C(=O)Nc2ccccn2)=C(O)c2sc(Cl)cc2S1(=O)=O [LORNOXICAM] |  | 0.02 |  | 
CCN(CC)CCC[C@H](C)Nc1ccnc2cc(Cl)ccc12 | 0.495 |  |  | 
CN1C(C(=O)Nc2ccccn2)=C(O)c2sccc2S1(=O)=O [TENOXICAM] |  | 0.032 |  | 
CNC(=O)Oc1ccc2c(c1)[C@]1(C)CCN(C)[C@@H]1N2C [PHYSOSTIGMINE] | 0.8 | 0.903 |  | 
